Results taken from US4725683A, “Fluorophenoxyphenoxypropionates and derivatives thereof” (The Dow Chemical Company, priority 1985, dated 1988).

Experiments:
Format in all cases: in vivo
Foxtail [1] = assay: Postemergent control of plant species; settings: 250 ppm
Barnyard Grass = assay: Postemergent activity
Procedure: (§1) Representative compositions of the present invention were evaluated for the postemergence control of species of plants listed in Table A. In these evaluations, pots of the plant species listed in Table A, grown to a height of about 10 cms, were used. Aqueous spray compositions, containing various amounts of 2-[4-(2-fluoro-4-trifluoromethylphenoxy)-phenoxy]propionic acid methy ester, i.e., 125 ppm, 62.5 ppm, 31.25 ppm, 15.6 ppm, 7.8 ppm and 3.9 ppm, respectively, were applied to separate pots. The spray compositions were made by mixing the active ingredient in acetone to 1/2 the final volume, i.e., twice the final concentration. An equal amount of water was added to the active ingredient/acetone mixture wherein the water contained 0.1 percent by weight of TWEEN® 200 surfactant. The application to the plants was made to the point of run-off and was carried out with conventional spraying equipment. Other pots were sprayed with similar compositions containing no toxicant to serve as controls. Thereafter, the pots were maintained under conditions conducive for plant growth. Two weeks after treatment, the pots were examined for plant growth and evaluated on a scale of 0 to 100 where 0 represents no effect and 100 represents complete kill. The results of the examination of the treated pots are set forth below in Table A.
(§2) Substantially the same procedures as those described in Example A were repeated except that the active ingredients were 2-[4-(4-chloro-2-fluorophenoxy)phenoxy]propionic acid; methyl ester and its R-enantiomer and 2-(4-(4-bromo-2-fluorophenoxy)phenoxy propionic acid; methyl ester and its R enantiomer. The results are listed below in Table B.
(§3) In further operations employing the above general procedures and the indicated test compounds the following results were obtained: […]

Wild Oats = assay: Postemergent activity; settings: Avena fatua, post-emergence, 336 h; for pest or weed control at 7.8 ppm / pest or weed control at 15.6 ppm / pest or weed control at 62.5 ppm / pest or weed control at 125 ppm / pest or weed control at 250 ppm: read-out: % Control
Procedure: as §1, §2, §3

Crabgrass = assay: Postemergent activity
Procedure: as §1, §2, §3

Wheat = assay: Postemergent activity; settings: Triticum aestivum, post-emergence, 336 h, read-out: % Control
Procedure: as §1, §2, §3

Foxtail [2] = assay: Postemergent control of plant species
Procedure: as §1, §3

Row | SMILES | Percent Control (Foxtail [1]) [%] | % Control (Barnyard Grass; 7.8 ppm) [%] | % Control (Barnyard Grass; 15.6 ppm) [%] | % Control (Barnyard Grass; 31.2 ppm) [%] | % Control (Barnyard Grass; 62.5 ppm) [%] | % Control (Barnyard Grass; 125 ppm) [%] | % Control (Barnyard Grass; 250 ppm) [%] | pest or weed control at 7.8 ppm (Wild Oats) [%] | pest or weed control at 15.6 ppm (Wild Oats) [%] | pest or weed control at 31.2 ppm (Wild Oats) [%] | pest or weed control at 62.5 ppm (Wild Oats) [%] | pest or weed control at 125 ppm (Wild Oats) [%] | pest or weed control at 250 ppm (Wild Oats) [%] | % Control (Crabgrass; 7.8 ppm) [%] | % Control (Crabgrass; 15.6 ppm) [%] | % Control (Crabgrass; 31.2 ppm) [%] | % Control (Crabgrass; 62.5 ppm) [%] | % Control (Crabgrass; 125 ppm) [%] | % Control (Crabgrass; 250 ppm) [%] | plant injury at 7.8 ppm (Wheat) [%] | other results
1 | CC(=O)C(C(C)=O)C(=O)C(C)Oc1ccc(Oc2ccc(Br)cc2F)cc1 (stereo not drawn) | 100 | 0 | 0 | 0 | 100 | 100 | 100 | 0 | 0 | 0 | 0 | 0 | 50 | 0 | 70 | 100 | 100 | 100 | 100 | 0 | plant injury at 15.6 ppm (Wheat): 0%; plant injury at 31.2 ppm (Wheat): 0%; Percent Control (Foxtail [2]; 7.8 ppm): 0%; Percent Control (Foxtail [2]; 15.6 ppm): 0%; Percent Control (Foxtail [2]; 31.2 ppm): 100%; Percent Control (Foxtail [2]; 62.5 ppm): 100%; Percent Control (Foxtail [2]; 125 ppm): 100%
2 | C=CC(=O)C(C)Oc1ccc(Oc2ccc(Br)cc2F)cc1 (stereo not drawn) | 100 | 0 | 0 | 0 | 0 | 0 | 30 | 0 | 0 | 0 | 0 | 0 | 0 | 0 | 0 | 0 | 100 | 98 | 98 | 0 | plant injury at 15.6 ppm (Wheat): 0%; plant injury at 31.2 ppm (Wheat): 0%; plant injury at 62.5 ppm (Wheat; 62.5 ppm): 0%; plant injury at 125 ppm (Wheat; 125 ppm): 0%; plant injury at 250 ppm (Wheat; 250 ppm): 0%; Percent Control (Foxtail [2]; 7.8 ppm): 0%; Percent Control (Foxtail [2]; 15.6 ppm): 0%; Percent Control (Foxtail [2]; 31.2 ppm): 0%; Percent Control (Foxtail [2]; 62.5 ppm): 0%; Percent Control (Foxtail [2]; 125 ppm): 0%
